In ChEMBL document CHEMBL3797081, “Application of virtual screening to the discovery of novel nicotinamide phosphoribosyltransferase (NAMPT) inhibitors with potential for the treatment of cancer and axonopathies” (Bioorg Med Chem Lett, 2016):
Activity calls are given as the source filed them. No cut-off for these calls is given here.

How the values were obtained:
[1] = target: Nicotinamide phosphoribosyltransferase (Homo sapiens, UniProt P43490); assay: Inhibition of human NAMPT using NAM as substrate assessed as NMN formation preincubated for 5 mins followed by substrate addition measured after 15 mins by fluorometric assay
[2] = Metabolic stability in human liver microsomes assessed as parent compound remaining at 5 uM measured at 30 mins in absence of NADPH; type: ADME; details: read-out: Stability
CYP3A4 = CYP3A4 (Homo sapiens, UniProt P08684); assay: Inhibition of CYP3A4 (unknown origin) at 3 uM relative to control; type: ADME
[3] = Metabolic stability in human liver microsomes assessed as parent compound remaining at 5 uM measured at 30 mins in presence of NADPH; type: ADME; details: read-out: Stability
CYP1A2 = target: T1, CYP1A2 (Homo sapiens, UniProt P05177); assay: Inhibition of CYP1A2 (unknown origin) at 3 uM relative to control; type: ADME
T1 sequence (P05177 whole entry): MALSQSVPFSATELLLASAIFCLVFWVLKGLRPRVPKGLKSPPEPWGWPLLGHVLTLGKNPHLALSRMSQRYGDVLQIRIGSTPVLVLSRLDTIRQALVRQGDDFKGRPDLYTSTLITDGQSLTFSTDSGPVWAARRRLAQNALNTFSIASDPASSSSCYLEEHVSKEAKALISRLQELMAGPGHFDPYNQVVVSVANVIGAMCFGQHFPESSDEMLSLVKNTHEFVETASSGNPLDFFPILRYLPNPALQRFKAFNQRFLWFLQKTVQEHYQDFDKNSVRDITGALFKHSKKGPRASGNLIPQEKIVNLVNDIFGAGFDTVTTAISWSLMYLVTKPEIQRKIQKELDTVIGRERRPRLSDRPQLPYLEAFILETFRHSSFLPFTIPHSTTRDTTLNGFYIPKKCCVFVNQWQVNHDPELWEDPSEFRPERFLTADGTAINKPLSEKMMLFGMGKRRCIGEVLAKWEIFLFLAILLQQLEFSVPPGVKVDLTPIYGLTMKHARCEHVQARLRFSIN

[4] = Permeability across human Caco2 cells assessed as drug recovery; type: ADME, cell-based; details: Caco-2, read-out: Drug recovery
[5] = Metabolic stability in mouse liver microsomes assessed as parent compound remaining at 5 uM measured at 30 mins in absence of NADPH; type: ADME; details: read-out: Stability
[6] = Metabolic stability in mouse liver microsomes assessed as parent compound remaining at 5 uM measured at 30 mins in presence of NADPH; type: ADME; details: read-out: Stability
CYP2C9 = CYP2C9 (Homo sapiens, UniProt P11712); assay: Inhibition of CYP2C9 (unknown origin) at 3 uM relative to control; type: ADME
CYP2D6 = CYP2D6 (Homo sapiens, UniProt P10635); assay: Inhibition of CYP2D6 (unknown origin) at 3 uM relative to control; type: ADME
[7] = Plasma protein binding in human; type: ADME, cell-free; details: read-out: PPB (converted)
[8] = target: Nicotinamide phosphoribosyltransferase (Mus musculus) (UniProt Q99KQ4); assay: Inhibition of NAMPT in neonatal mouse superior cervical ganglion explant assessed as delay in degeneration of injured axons at 1 uM treated <10 mins prior to axon transection meaured at 8 hrs by phase contrast microscopy; type: tissue-based
[9] = target: Nicotinamide phosphoribosyltransferase (Mus musculus) (UniProt Q99KQ4); details: Superior cervical ganglion, 100 nM
Description: Inhibition of NAMPT in neonatal mouse superior cervical ganglion explant assessed as delay in degeneration of injured axons at 100 nM treated <10 mins prior to axon transection meaured at 8 to 24 hrs by phase contrast microscopy

Chain of Nicotinamide phosphoribosyltransferase (P43490 whole entry): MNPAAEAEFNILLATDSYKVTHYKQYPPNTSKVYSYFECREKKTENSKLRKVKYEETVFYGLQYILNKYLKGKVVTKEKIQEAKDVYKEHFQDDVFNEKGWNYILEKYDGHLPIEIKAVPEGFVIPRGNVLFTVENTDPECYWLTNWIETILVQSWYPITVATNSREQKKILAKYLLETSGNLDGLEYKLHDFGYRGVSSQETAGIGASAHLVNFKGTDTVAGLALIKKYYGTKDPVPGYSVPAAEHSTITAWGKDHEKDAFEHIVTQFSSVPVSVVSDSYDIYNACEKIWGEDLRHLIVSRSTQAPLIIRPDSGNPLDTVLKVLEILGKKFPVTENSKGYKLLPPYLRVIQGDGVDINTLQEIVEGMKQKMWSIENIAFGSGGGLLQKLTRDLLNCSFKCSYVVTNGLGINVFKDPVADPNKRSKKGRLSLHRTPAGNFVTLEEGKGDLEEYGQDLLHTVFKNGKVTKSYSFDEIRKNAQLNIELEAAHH
Chain of CYP2C9 (P11712 whole entry): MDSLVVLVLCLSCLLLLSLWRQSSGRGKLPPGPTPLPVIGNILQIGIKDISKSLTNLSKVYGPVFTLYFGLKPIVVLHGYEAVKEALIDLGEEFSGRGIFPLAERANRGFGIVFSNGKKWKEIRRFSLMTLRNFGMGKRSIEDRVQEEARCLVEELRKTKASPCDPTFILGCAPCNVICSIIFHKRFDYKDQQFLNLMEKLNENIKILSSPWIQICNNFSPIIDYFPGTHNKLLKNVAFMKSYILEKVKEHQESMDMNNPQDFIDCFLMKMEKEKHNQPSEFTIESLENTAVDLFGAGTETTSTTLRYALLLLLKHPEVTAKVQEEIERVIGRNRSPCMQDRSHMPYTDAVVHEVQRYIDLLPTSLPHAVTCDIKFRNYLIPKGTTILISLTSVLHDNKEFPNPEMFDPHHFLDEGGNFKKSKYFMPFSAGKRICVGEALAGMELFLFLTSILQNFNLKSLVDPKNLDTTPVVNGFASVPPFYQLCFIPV
Chain of Nicotinamide phosphoribosyltransferase (Mus musculus) (Q99KQ4 whole entry, looked up): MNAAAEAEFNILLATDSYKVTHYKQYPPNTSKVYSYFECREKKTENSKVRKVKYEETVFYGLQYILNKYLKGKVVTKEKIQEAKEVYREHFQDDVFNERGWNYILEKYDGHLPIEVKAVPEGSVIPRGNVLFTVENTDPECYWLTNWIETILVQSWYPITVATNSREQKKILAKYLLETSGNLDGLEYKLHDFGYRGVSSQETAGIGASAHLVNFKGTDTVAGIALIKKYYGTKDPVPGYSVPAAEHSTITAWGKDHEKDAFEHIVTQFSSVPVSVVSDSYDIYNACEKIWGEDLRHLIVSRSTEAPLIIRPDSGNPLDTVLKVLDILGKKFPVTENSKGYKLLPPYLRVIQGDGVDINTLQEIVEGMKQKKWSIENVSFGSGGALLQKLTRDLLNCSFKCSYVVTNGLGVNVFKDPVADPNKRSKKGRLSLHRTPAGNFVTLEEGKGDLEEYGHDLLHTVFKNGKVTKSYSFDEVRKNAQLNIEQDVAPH
Chain of CYP3A4 (P08684 whole entry): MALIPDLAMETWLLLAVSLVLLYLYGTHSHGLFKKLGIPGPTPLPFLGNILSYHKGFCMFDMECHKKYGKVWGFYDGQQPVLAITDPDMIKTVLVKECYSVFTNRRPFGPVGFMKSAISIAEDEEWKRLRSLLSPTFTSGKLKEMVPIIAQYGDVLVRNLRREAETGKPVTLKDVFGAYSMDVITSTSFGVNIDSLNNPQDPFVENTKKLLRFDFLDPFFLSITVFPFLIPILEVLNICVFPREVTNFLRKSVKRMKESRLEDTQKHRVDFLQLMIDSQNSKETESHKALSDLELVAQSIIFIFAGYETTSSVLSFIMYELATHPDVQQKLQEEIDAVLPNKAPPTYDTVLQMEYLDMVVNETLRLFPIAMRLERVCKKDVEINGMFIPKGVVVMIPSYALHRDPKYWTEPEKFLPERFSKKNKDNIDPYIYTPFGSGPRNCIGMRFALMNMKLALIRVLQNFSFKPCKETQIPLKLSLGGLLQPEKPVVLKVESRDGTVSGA
Chain of CYP2D6 (P10635 whole entry): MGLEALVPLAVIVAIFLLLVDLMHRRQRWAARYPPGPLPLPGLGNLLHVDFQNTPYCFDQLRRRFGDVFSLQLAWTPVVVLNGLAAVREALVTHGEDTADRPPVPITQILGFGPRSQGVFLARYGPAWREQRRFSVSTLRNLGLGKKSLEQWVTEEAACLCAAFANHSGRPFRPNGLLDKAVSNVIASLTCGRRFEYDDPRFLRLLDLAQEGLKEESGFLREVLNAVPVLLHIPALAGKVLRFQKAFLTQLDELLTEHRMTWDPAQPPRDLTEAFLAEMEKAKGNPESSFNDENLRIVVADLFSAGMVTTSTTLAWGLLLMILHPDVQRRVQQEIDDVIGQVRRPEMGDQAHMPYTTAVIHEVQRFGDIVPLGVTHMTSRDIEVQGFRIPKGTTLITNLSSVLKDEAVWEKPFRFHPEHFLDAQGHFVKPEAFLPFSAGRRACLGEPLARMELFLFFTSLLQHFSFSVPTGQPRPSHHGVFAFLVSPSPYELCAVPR

## O=C(NCCOc1ccc2ccccc2c1)NCc1cccnc1
[1]
  IC50: 5000 nM

## O=C(c1cc(-c2cccnc2)[nH]n1)N1CCN(C(c2ccccc2)c2ccccc2)CC1
[2]
  remaining at 0.5 h, 5 µM: 104%
CYP3A4
  inhibition at 3 µM: 20%
[3]
  remaining at 0.5 h, 5 µM: 63%
CYP1A2
  inhibition at 3 µM: 23%
[4]
  recovery: < 70%
[5]
  remaining at 0.5 h, 5 µM: 96%
[1]
  IC50: 243 nM
[6]
  remaining at 0.5 h, 5 µM: 19%
CYP2C9
  inhibition at 3 µM: 43%
CYP2D6
  inhibition at 3 µM: 3%
[7]
  fraction unbound: 0.004
[8]
  inhibition: Active

## CC1(C)Cc2cccc(OCCNC(=O)/C=C/c3cccnc3)c2O1
[1]
  IC50: 940 nM

## O=C(c1cc(-c2cccnc2)n[nH]1)N1CCN(C(=O)c2cc3ccccc3[nH]2)CC1
[1]
  IC50: 3800 nM

## O=C(NCc1cccnc1)c1cc2n(n1)CCN(Cc1ccc(Cl)c(Cl)c1)C2=O
[1]
  IC50: 320 nM

## O=C(/C=C/c1cccnc1)NCCCCC1CCN(C(=O)c2ccccc2)CC1
[9]
  inhibition: Active

## O=C(/C=C/c1cccnc1)Nc1ccc(-c2nnc3n2CCCCC3)cc1
[1]
  IC50: 670 nM

## O=C(/C=C/c1cccnc1)Nc1ccc(C(=O)NCC(F)(F)F)cc1
[1]
  IC50: 220 nM

## O=C(COc1ccc(S(=O)(=O)Nc2ccc(Cl)cc2)cc1)NCc1cccnc1
[1]
  IC50: 1900 nM

## O=C(/C=C/c1cccnc1)N1CCN(Cc2ccc(OC(F)(F)F)cc2)CC1
[1]
  IC50: 780 nM

## O=C(/C=C/c1cccnc1)N1CCN(Cc2csc(-c3ccc(F)cc3)n2)CC1
[1]
  IC50: 3200 nM

## CCCCc1ccc(NC(=O)C2CC2c2cccnc2)cc1 (stereo not drawn)
[2]
  remaining at 0.5 h, 5 µM: 96%
CYP3A4
  inhibition at 3 µM: 63%
[3]
  remaining at 0.5 h, 5 µM: 7%
CYP1A2
  inhibition at 3 µM: 22%
[4]
  recovery: < 70%
[5]
  remaining at 0.5 h, 5 µM: 87%
[1]
  IC50: 41.8 nM
[6]
  remaining at 0.5 h, 5 µM: 43%
CYP2C9
  inhibition at 3 µM: 31%
CYP2D6
  inhibition at 3 µM: 1%
[7]
  fraction unbound: 0.008
